In ChEMBL document CHEMBL4184188, “Characterization of tyrosinase inhibitory constituents from the aerial parts of Humulus japonicus using LC-MS/MS coupled online assay” (Bioorg Med Chem, 2018):
Activity calls are given as the source filed them. The calls are words filed in the database; no cut-off is given here.

These compounds were tested against T1, Tyrosinase (Agaricus bisporus) (UniProt O42713) (assay: Inhibition of mushroom tyrosinase using tyrosine as substrate pretreated for 5 mins followed by substrate addition measured after 20 mins by ELISA).
T1 sequence (whole entry): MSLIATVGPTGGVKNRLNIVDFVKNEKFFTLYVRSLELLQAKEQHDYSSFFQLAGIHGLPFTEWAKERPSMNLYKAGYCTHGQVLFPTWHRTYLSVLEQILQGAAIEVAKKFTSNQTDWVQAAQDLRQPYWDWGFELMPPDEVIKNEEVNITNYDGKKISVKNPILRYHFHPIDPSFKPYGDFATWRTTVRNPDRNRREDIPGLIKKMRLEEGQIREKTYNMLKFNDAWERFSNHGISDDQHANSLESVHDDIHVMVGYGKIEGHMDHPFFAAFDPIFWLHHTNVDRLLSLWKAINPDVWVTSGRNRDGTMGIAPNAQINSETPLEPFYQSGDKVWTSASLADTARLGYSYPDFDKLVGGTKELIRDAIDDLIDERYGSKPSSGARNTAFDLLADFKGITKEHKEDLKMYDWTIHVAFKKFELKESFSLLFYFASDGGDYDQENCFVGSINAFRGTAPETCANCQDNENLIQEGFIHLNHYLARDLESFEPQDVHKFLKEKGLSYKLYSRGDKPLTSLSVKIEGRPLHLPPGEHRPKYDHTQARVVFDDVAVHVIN

Structure (SMILES)	inhibition
CC1=CC(=O)CC(C)(C)/C1=C/C[C@@H](C)O	inactive
COC(=O)c1c[nH]c2ccccc12	Active
CCOC(C)=O	Active
NC(=O)/C=C/c1ccc(O)cc1	Active
C=CCc1ccc(O[C@@H]2O[C@H](CO)[C@@H](O)[C@H](O)[C@H]2O)c(OC)c1	inactive
O=C(O)c1ccc(O)cc1	Active
O=c1cc(-c2ccc(O)c(O)c2)oc2cc(O)cc(O)c12	Active
CC1(C)C[C@@H](O)C[C@]2(C)OC(=O)C=C12	inactive
COc1ccc(C=O)cc1O	inactive
O=C(O)c1c[nH]c2ccccc12	Active
O=C(/C=C/c1ccc(O)cc1)NCCc1ccc(O)cc1	Active
O=Cc1ccccc1	Active
CC(=O)/C=C/[C@@]1(O)C(C)=CC(=O)CC1(C)C	inactive
O=c1cc(-c2ccc(O)cc2)oc2cc(O)cc(O)c12	Active
COc1cc2ccc(=O)oc2cc1O	Active
O=Cc1c[nH]c2ccccc12	Active
CC1(C)C[C@@H](O)C[C@@]2(C)OC(=O)C=C12	inactive

Structure (SMILES)	inhibition
COc1cc2oc(=O)ccc2cc1O	Active
COc1cc(C(=O)O)ccc1O	inactive
COc1cc(/C=C/C(=O)NCCc2ccc(O)cc2)ccc1O	inactive
O=C(O)c1ccccc1	Active
O=c1cc[nH]c(=O)[nH]1	Active
CC1=CC(=O)CC(C)(C)[C@@]1(O)CC[C@H](C)O	inactive
NC(=O)c1cccnc1	Active
C/C(=C\COC(=O)c1ccccc1)CO[C@@H]1O[C@H](CO)[C@@H](O)[C@H](O)[C@H]1O	Active
CC(=O)/C=C/[C@H]1C(C)=C[C@H](O)CC1(C)C	inactive
CC(=O)C=C=C1C(C)(C)C[C@H](O)C[C@@]1(C)O	inactive
O=c1cc(-c2ccc(O)cc2)oc2c([C@@H]3O[C@H](CO)[C@@H](O)[C@H](O)[C@H]3O)c(O)cc(O)c12	inactive
COc1cc(C(C)=O)ccc1O	inactive
CC(=O)/C=C/[C@@]12O[C@]1(C)C[C@@H](O)CC2(C)C	inactive
O=C(/C=C\c1ccc(O)cc1)NCCc1ccc(O)cc1	Active
C/C(=C\COC(=O)c1ccccc1O)CO[C@@H]1O[C@H](CO)[C@@H](O)[C@H](O)[C@H]1O	Active
COc1cc(/C=C\C(=O)NCCc2ccc(O)cc2)ccc1O	inactive
COc1ccc(C(C)=O)cc1OC	inactive

Each compound was assayed against T1, Tyrosinase (Agaricus bisporus) (assay: Inhibition of mushroom tyrosinase at 100 uM using tyrosine as substrate pretreated for 5 mins followed by substrate addition measured after 20 mins by ELISA relative to control).

Structure (SMILES)	inhibition [%]
COc1cc2ccc(=O)oc2cc1O	> 30
O=Cc1c[nH]c2ccccc12	> 30
COc1cc2oc(=O)ccc2cc1O	> 30
C/C(=C\COC(=O)c1ccccc1O)CO[C@@H]1O[C@H](CO)[C@@H](O)[C@H](O)[C@H]1O	> 30
